Key:
implanted tumors = assay: Efficacy study: delay in growth of implanted tumors, regressions, tumor-free survivors; format: in vivo, athymic mice
Method: The following data in Table 9 summarize the in vivo properties of several compounds of the current invention. The protocol for the experiment is as follows. The dose-range finding study consists of four groups of three athymic mice each (four dose levels.) The compound is administered on the basis of individual animal body weight. The route is intraperitoneal (IP) and the treatment schedule is daily for 14 days (qd×14) or once every 4 days for 12 days (q4d×3).
The efficacy study consists of three compound-treated groups (six mice/group), a positive control-treated group (six mice), and a vehicle-treated control group of 12 mice. Test compounds were administered IP under the treatment schedules listed above (qd×14 or q4d×3), whereas the positive control agent (Taxol) was administered intravenously (IV) at a dosage level of 15 mg/kg/dose for five consecutive days (qd×5). All agents were administered on the basis of individual animal body weight. Treatment began when the implanted tumors were approximately 100 mg in size (range of 65 to 200 mg). The mice were observed daily for survival. Each tumor was measured by caliper in two dimensions and converted to tumor mass using the formula for a prolate ellipsoid (a×b^2/2) and assuming unit density. Tumor measurements and animal body weights were recorded twice weekly. Antitumor activity was assessed by the delay in tumor growth of the treated groups in comparison to the vehicle-treated control group, partial and complete regressions, and tumor-free survivors.

[1] = test system: 60-human transformed cell lines; assay: NCI 60-cell line growth inhibition assay (whole panel); format: cell-based; settings: range over 60 cell lines

Row | Structure (SMILES) | T-C (implanted tumors; 0.27 mg/kg IP q4d × 3) [days] | Tumor free/total (implanted tumors; 0.27 mg/kg IP q4d × 3) | T-C (implanted tumors; 0.4 mg/kg IP q4d × 3) [days] | Tumor free/total (implanted tumors; 0.4 mg/kg IP q4d × 3) | T-C (implanted tumors; 0.6 mg/kg IP q4d × 3) [days] | Tumor free/total (implanted tumors; 0.6 mg/kg IP q4d × 3) | GI50 [1] [µM]
1 | CC(C)n1cnc2c(NCc3ccc(-c4ccsc4)cc3)nc(N[C@H]3CC[C@H](N)CC3)nc21 [Compound 12] | 1.2 | 0/6 | 0.2 | 0/6 | 0.3 | 0/6 | –
2 | Cn1cnc2c(NCc3ccccc3)nc(NCCO)nc21 [Olomoucine, reference compound] | – | – | – | – | – | – | 20 to 100
